Experimental data from patent US7968601B2, “Adamantyl acetamides as 11-β hydroxysteroid dehydrogenase inhibitors” (Janssen Pharmaceutica N.V., priority 2002, dated 2011).

Legend:
11b-HSD1 [1] = biological target: 11b-HSD1 (Homo sapiens, UniProt P28845); assay: Enzymatic assay, 11b-HSD1 reductase activity (conversion of cortisone into cortisol); type: biochemical; details: pIC50 scored 1-3, read-out: [C1] HSD1-prot Reduct Score
Protocol: The effects of compounds on 11b-HSD1 dependent conversion of cortisone into cortisol (reductase activity) was studied in a reaction mixture containing 30 mM Tris-HCl buffer pH 7.2, 180 μM NADPH, 1 mM EDTA, 2 μM cortisone, 1 μl drug and/or solvent and 11 μg recombinant protein in a final volume of 100 μl.
(§1) All incubations were performed for 45 min at 37 C in a water bath. The reaction was stopped by adding 100 μl acetonitrile containing 20 μg corticosterone as internal standard. After centrifugation, the product formation was analysed in the supernatant by HPLC on a Hypersyl BDS-C18 column using 0.05 mM ammonium acetate/methanol (50/50) as solvent. In all of the aforementioned assays, the drugs to be tested were taken from a stock solution and tested at a final concentration ranging from […] to 3.10^−9M. From the thus obtained dose response curves, the pIC50 value was calculated and scored as follows; Score 1=pIC50 value<5, Score 2=pIC50 value in the range of 5 to 6, Score 3=pIC50 value>6. (in this table NT stands for Not Tested).

11b-HSD2 [2] = biological target: T1, 11b-HSD2 (Homo sapiens, UniProt P80365); assay: Enzymatic assay, 11b-HSD2 dependent dehydrogenase activity; type: biochemical; details: 11b-HSD2 dehydrogenase activity, pIC50 scored 1-3, read-out: [C1] HSD2 prot Dehydro Score
T1 sequence (P80365 1-405): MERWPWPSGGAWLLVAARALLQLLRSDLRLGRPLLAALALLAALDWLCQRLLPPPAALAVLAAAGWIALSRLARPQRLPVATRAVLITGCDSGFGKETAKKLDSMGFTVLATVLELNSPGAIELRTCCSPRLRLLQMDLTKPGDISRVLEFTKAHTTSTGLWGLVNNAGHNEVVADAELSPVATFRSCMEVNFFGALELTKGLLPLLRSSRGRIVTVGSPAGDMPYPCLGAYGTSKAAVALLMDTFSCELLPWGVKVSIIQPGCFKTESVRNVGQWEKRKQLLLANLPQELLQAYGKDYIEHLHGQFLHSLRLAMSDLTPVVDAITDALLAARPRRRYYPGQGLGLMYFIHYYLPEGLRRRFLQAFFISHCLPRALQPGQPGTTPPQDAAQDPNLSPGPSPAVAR
Protocol: The effects on the 11b-HSD2 dependent dehydrogenase activity was studied in a reaction mixture containing 0.1M sodium phosphate buffer pH 7.5, 300 μM NAD, 100 nM cortisol (of which 2 nM is 3H-radio labelled), 1 μl drug and/or solvent and 2.5 μg recombinant protein in a final volume of 100 μl.
as §1

11b-HSD1 [3] = biological target: T2, 11b-HSD1 (Mus musculus, UniProt P50172); assay: Cellular assay, 11b-HSD1 activity in differentiated 3T3-L1 cells; type: cell-based; details: 4 hour pre-incubation, pIC50 scored 1-3, read-out: [C2] HSD1 cellular 3T3-L1 Score
T2 construct: endogenous in cells; host or cells: 3T3-L1 (ATCC-CL-173), differentiated into adipocytes
T2 sequence (P50172 whole entry): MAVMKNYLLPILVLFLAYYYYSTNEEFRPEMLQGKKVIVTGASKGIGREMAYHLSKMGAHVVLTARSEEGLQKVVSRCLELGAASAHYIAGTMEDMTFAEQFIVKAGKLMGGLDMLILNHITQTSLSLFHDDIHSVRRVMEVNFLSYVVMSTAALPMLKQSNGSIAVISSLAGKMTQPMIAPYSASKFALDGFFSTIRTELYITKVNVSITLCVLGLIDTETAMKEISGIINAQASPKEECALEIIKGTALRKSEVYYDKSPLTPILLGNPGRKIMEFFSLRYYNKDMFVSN
Protocol: The effects on 11b-HSD1 activity was measured in differentiated 3T3-L1 cells and rat hepatocytes.
Mouse fibroblast 3T3-L1 cells (ATCC-CL-173) were seeded at a density of 16500 cells/ml in 12 well plates and grown for 7 days in DMEM medium (supplemented with 10% heat inactivated foetal calf serum, 2 mM glutamine and 25 mg gentamycin) at 37 C in a humidified 5% CO2 atmosphere. Medium was refreshed twice a week. Fibroblasts were differentiated into adipocytes at 37 C in a 5% CO2 humidified atmosphere in growth medium containing 2 μg/ml insulin, 55 μg/ml IBMX and 39.2 μg/ml dexamethasone.
Following a 4 hour pre-incubation with test compound, 0.5 μCi ^3H-cortisone or dehydrocorticosterone, was added to the cultures. One hour later, the medium was extracted on Extrelut^3-columns with 15 ml diethyl ether and the extract was analysed by HPLC as described above.
(§2) As for the enzymatic assays, the compounds to be tested were taken from a stock solution and tested at a final concentration ranging from […] to 3.10^−9M. From the thus obtained dose response curves, the pIC50 value was calculated and scored as follows; Score 1=pIC50 value<5, Score 2=pIC50 value in the range of 5 to 6, Score 3=pIC50 value>6. (in this table NT stands for Not Tested).

11b-HSD2 [4] = biological target: T1, 11b-HSD2; assay: Cellular assay, 11b-HSD2 activity in HepG2 cells; type: cell-based; parameters: endogenous in cells; host or cells: HepG2 (ATCC HB-8065); details: 4 hour pre-incubation, pIC50 scored 1-3, read-out: [C2] HSD2 cellular HepG2 Score
Protocol: The effects on 11b-HSD2 activity was studied in HepG2 and LCC-PK1-cells HepG2-cells (ATCC HB-8065) were seeded in 12 well plates at a density of 100,000 cells/ml and grown at 37 C in a humidified 5% CO2 atmosphere in MEM-Rega-3 medium supplemented with 10% heat inactivated foetal calf serum, 2 mM L-glutamine and sodium bicarbonate). Medium was refreshed twice a week. Pig kidney cells (LCC-PK1, ATCC CRL-1392) were seeded at a density of 150,000 cells/ml in 12 well plates and grown at 37 C in a humidified 5% CO2 atmosphere in Medium 199 supplemented with Earls modified salt solution, 100 U/ml penicillin, 100 μg/ml streptomycin and 10% foetal calf serum. Medium was refreshed twice a week. Twenty four hours prior to the onset of the experiment, medium was changed by medium containing 10% charcoal stripped foetal calf serum.
Following a 4 hour pre-incubation with test compound, 0.5 μCi ^3H-cortisol or corticosterone, was added to the cultures. One hour later, the medium was extracted on Extrelut^3-columns with 15 ml diethyl ether and the extract was analysed by HPLC as described above.
as §2

Sequence of 11b-HSD1 (Homo sapiens, UniProt P28845) (P28845 whole entry): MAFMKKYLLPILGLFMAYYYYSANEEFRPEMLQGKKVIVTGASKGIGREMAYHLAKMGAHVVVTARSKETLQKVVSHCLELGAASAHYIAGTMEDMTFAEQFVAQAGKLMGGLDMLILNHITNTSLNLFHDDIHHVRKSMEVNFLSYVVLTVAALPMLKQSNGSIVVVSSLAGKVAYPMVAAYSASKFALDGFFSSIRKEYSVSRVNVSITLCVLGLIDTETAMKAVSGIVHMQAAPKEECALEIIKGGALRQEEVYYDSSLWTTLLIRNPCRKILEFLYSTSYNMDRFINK

| SMILES | IC50 (11b-HSD1 [1]) | IC50 (11b-HSD2 [2]) | IC50 (11b-HSD1 [3]) | IC50 (11b-HSD2 [4]) |
| --- | --- | --- | --- | --- |
| CC(C)(C(=O)NC1C2CCCC1CCC2)c1ccccc1 (stereo not shown) [Compound 48] | > 10 µM | > 10 µM | < 1 µM | > 10 µM |
| CC(C)(C(=O)NC1C2CC3CC(C2)CC1C3)c1cccc(CCN2CCOCC2)c1 (stereo not shown) [Compound 191] | < 1 µM | > 10 µM | < 1 µM | > 10 µM |
| Cc1cc(CCC(=O)N2CCOCC2)cc(C(C)(C)C(=O)N[C@H]2[C@@H]3CC4C[C@H]2C[C@](O)(C4)C3)c1 [Compound 248] | < 1 µM | > 10 µM | < 1 µM | > 10 µM |
| CC(C)(C(=O)NC1C2CC3CC(C2)CC1C3)c1ccc(F)cc1F (stereo not shown) [Compound 87] | > 10 µM | > 10 µM | < 1 µM | > 10 µM |
| CC1CCC(C(=O)NC2C3CC4CC(C3)CC2C4)c2ccccc21 (stereo not shown) [Compound 236] | < 1 µM | > 10 µM | < 1 µM | > 10 µM |
| COc1cccc2c1OCC=C2C(=O)NC1C2CC3CC(C2)CC1C3 (stereo not shown) [Compound 171] | < 1 µM | > 10 µM | < 1 µM | > 10 µM |
| O=C(NC1C2CC3CC(C2)CC1C3)C1Cc2ccccc21 (stereo not shown) [Compound 177] | < 1 µM | > 10 µM | < 1 µM | > 10 µM |
| O=C(NC1C2CC3CC(C2)CC1C3)C1CCOc2ccccc21 (stereo not shown) [Compound 167] | < 1 µM | > 10 µM | < 1 µM | > 10 µM |
| COc1ccc(C(C)(C)C(=O)NC2C3CC4CC(C3)CC2C4)cc1 (stereo not shown) [Compound 47] | < 1 µM | > 10 µM | < 1 µM | > 10 µM |
| O=C(NC1C2CC3CC(C2)CC1C3)C1=CCCc2c(Br)cccc21 (stereo not shown) [Compound 223] | < 1 µM | > 10 µM | < 1 µM | > 10 µM |
| O=C(NC1C2CC3CC(C2)CC1C3)C1=CCOc2ccccc21 (stereo not shown) [Compound 162] | < 1 µM | > 10 µM | < 1 µM | > 10 µM |
| O=C(NC1C2CC3CC(C2)CC1C3)C1CCSc2ccccc21 (stereo not shown) [Compound 182] | < 1 µM | > 10 µM | < 1 µM | > 10 µM |
| Cc1cc(CCC(=O)O)cc(C(C)(C)C(=O)N[C@H]2[C@@H]3CC4C[C@H]2C[C@](F)(C4)C3)c1 [Compound 254] | > 10 µM | > 10 µM | < 1 µM | > 10 µM |
| COc1cc(C)cc(C(C)(C)C(=O)N[C@H]2[C@@H]3CC4C[C@H]2C[C@](F)(C4)C3)c1 [Compound 263] | > 10 µM | > 10 µM | < 1 µM | > 10 µM |
| O=C(N[C@H]1[C@@H]2CC3C[C@H]1C[C@](O)(C3)C2)C1CCc2ccccc2C1 (stereo partly shown) [Compound 243] | < 1 µM | > 10 µM | < 1 µM | > 10 µM |
| COc1ccc2c(c1)C(C(=O)NC1C3CC4CC(C3)CC1C4)CCC2 (stereo not shown) [Compound 203] | > 10 µM | > 10 µM | < 1 µM | > 10 µM |
| CCCc1cccc(C(C)(C)C(=O)NC2C3CC4CC(C3)CC2C4)c1 (stereo not shown) [Compound 166] | < 1 µM | > 10 µM | < 1 µM | > 10 µM |
| O=C(O)CCc1cccc2c1CCCC2C(=O)N[C@H]1[C@@H]2CC3C[C@H]1C[C@](F)(C3)C2 (stereo partly shown) [Compound 258] | < 1 µM | > 10 µM | < 1 µM | > 10 µM |
| NC(C(=O)NC1C2CC3CC(C2)CC1C3)c1ccccc1 (stereo not shown) [Compound 50] | > 10 µM | > 10 µM | 1 to 10 µM | > 10 µM |
| CC(C)(C(=O)NC1C2CC3CC(C2)CC1C3)c1cccc(O)c1 (stereo not shown) [Compound 5] | < 1 µM | > 10 µM | < 1 µM | > 10 µM |
| CCOC(=O)CCc1cccc(C(C)(C)C(=O)NC2C3CC4CC(C3)CC2C4)c1 (stereo not shown) [Compound 193] | < 1 µM | > 10 µM | < 1 µM | > 10 µM |
| COc1cc(C)cc(C(C)(C)C(=O)NC2C3CC4CC(C3)CC2C4)c1 (stereo not shown) [Compound 210] | > 10 µM | > 10 µM | < 1 µM | > 10 µM |
| CC(C)(C(=O)N[C@@H]1[C@@H]2CC3C[C@H]1C[C@@](O)(C3)C2)c1cccc(CCC(=O)O)c1 [Compound 242] | 1 to 10 µM | > 10 µM | < 1 µM | > 10 µM |
| CC(C)(C(=O)NC1C2CC3CC(C2)CC1C3)c1ccc(OCC(=O)O)cc1 (stereo not shown) [Compound 72] | 1 to 10 µM | > 10 µM | < 1 µM | > 10 µM |
| COC(C(=O)NC1C2CC3CC(C2)CC1C3)c1ccccc1 (stereo not shown) [Compound 43] | < 1 µM | > 10 µM | 1 to 10 µM | > 10 µM |
